Data taken from patent US20230391779A1, “BICYCLIC COMPOUNDS, COMPOSITIONS AND USE THEREOF” (Betta Pharmaceuticals Co., Ltd., priority 2020, published 2023).

Legend:
[1] = Body weight change in NCI-H226 xenograft model; format: in vivo, BALB/c nude mice; conditions: daily oral dosing, 28 days, mice bearing NCI-H226 tumor
Experimental: (§1) Each mouse (D000521 BALB/c-Nu, GemPharmatech Co., Ltd.) was inoculated subcutaneously at the right flank with NCI-H226 tumor cells (ATCC, CRL-5826) (1×107) in 0.2 mL of PBS with Matrigel (Corning, 356234) (1:1) for tumor development. Treatments were started when the average tumor size reached approximately 100-150 mm3. The test article was administered to the mice orally once a day from the day of grouping, total 28 days (QD×28 Days). Body weight change of animals was monitored regularly as an indicator of drug safety. Tumor volumes were measured twice weekly in two dimensions using a caliper, and the volume was expressed in mm3 using the formula “V=(LλW^2)/2”, where V is the tumor volume, L is the tumor length (the longest tumor dimension) and W is the tumor width (the longest tumor dimension perpendicular to L). Therapeutic efficacy was evaluated by tumor growth inhibition TGI (%)·TGI (%)=[1−(Ti−T0)/(Vi−V0)]×100; Ti is the average tumor volume of a treatment group on a given day, TO is the average tumor volume of the treatment group on day 0, Vi is the average tumor volume of the vehicle control group on the same day with Ti, and V0 is the average tumor volume of the vehicle group on day 0.

[2] = tested on: NCI-H226 human lung squamous cell carcinoma xenograft; assay: In vivo efficacy, subcutaneous NCI-H226 xenograft model; set-up: species or system BALB/c nude mice; conditions: QD, oral, tumor volume at day 28
Experimental: In vivo pharmacodynamic and efficacy studies of compound 5, compound 6, and compound 124 in the subcutaneous NCI-H226 human lung squamous cell carcinoma xenograft model on BALB/c nude mice.
as §1

NCI-H226 cells = assay: BRDU assay (cell proliferation); format: cell-based; conditions: Homo sapiens, proliferation inhibition, 1% FBS medium
Experimental: PerkinElmer's DELFIA® Cell proliferation kit (PerkinElmer, Cat: AD0200) was used to detect the inhibition on the proliferation of NCI-H226 cells (ATCC, CRL-5826). • a) Seeded 1500/well for NCI-H226 cell into a 96-well plate. • b) After 24 hours, compound was added to wells with 1% FBS medium conditions. The final testing concentrations of test compounds were […]. • c) NCI-H226 cells were incubated for 72 hours in incubator. • d) Diluted BrdU Labeling Reagent 100-fold with medium and added […] per well. The NCI-H226 cells were incubated 24 h in 5% CO2 at 37° C. incubator. • e) Detect cell proliferation according BrdU kit, and the luminescence signal value of each well on the multifunctional microplate reader was readed.
Data analysis: • Use GraphPad Prism 6 software to calculate IC50 and plot effect-dose curve of compounds.
Y=Bottom+(Top−Bottom)/(1+10^((LogIC50−X)×HillSlope)). • Y was the inhibition %, • X was the log concentration of compounds.
Inhibition %=(signalHC−signalcomp)/(signalHC−signalLC); • HC (high control) was DMSO group, • LC (low control) was 10 uM staurosporine group, • Comp was administration group.
IC50 data obtained for the Example compounds are provided in Table 7, and the inhibition curve in NCI-H226 cell line are as shown in FIG. 1-7, wherein X axis is compound concentration (nm), Y axis is the inhibition %.

TEAD-YAP/TAZ interaction = assay: CTGF ELISA assay; format: cell-based, human; conditions: CTGF in culture supernatant of NCI-H2052 cells, 24 hours with compound
In short: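 NCI-H2052 cells treated 24 h at 37 °C with compound (10000–0.61 nM, 0.5% DMSO); secreted CTGF in supernatant measured by sandwich ELISA (OD 450 nm) against a standard curve. EC50 fitted from CTGF concentration-response curves.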

[3] = Pharmacokinetics in plasma following PO cassette dosing in mice; format: in vivo; conditions: mouse, Balb/C female mice, 5 mg/kg; for AUC: blood collection 30 min, 2 h, 4 h
Experimental: Adult Balb/C female mice (6-7 weeks, Vitalriver) were received to cassette dosing of the test compounds with 10-20% DMSO, 10% Solutol (Kolliphor HS 15, Beijing Fengli Jingqiu Pharmaceutical Co., Ltd.) and 80-70% H2O as excipients. The mice (n=3) were giving oral administration (intragastric administration) at a dose of 5 mg/kg. Time of blood collection: 30 min, 2 h, 4 h. About 0.1 mL of whole blood was collected from retro-orbital venous plexus, and placed into tubes that contained EDTA as an anticoagulant. The samples were centrifuged at 4° C. and 4000 rpm for 10 min. The plasma was transferred into centrifuge tubes, and stored at −20° C. before being analyzed. Concentrations of test compounds in the plasma samples were analyzed with liquid chromatography-tandem mass spectrometry (LC-MS/MS). Plasma concentration-time data of individual animals was analyzed using Microsoft Excel 2010. Non-compartmental model was introduced in concentration analysis. The pharmacokinetic parameters of the test compounds were calculated using WinNonlin (version 4.1; Pharsight) software.

IC50 (NCI-H226 cells) [nM] | EC50 (TEAD-YAP/TAZ interaction) [nM] | Cmax [3] [ng/mL] | AUC [3] [ng·h/mL] | Structure (SMILES) | body weight loss [1] | TGI (%) ([2]; 2 mg/kg) | TGI (%) ([2]; 10 mg/kg) | TGI (%) ([2]; 0.5 mg/kg) | TGI (%) ([2]; 50 mg/kg)
140 | 2 | – | – | C=C(F)C(=O)N1CC(n2nc(-c3ccc(C(F)(F)F)cc3)c3ncccc32)C1 [Compound 6, 2-fluoro-1-(3-(3-(4-(trifluoromethyl)phenyl)-1H-pyrazolo[4,3-b]pyridin-1-yl)azetidin-1-yl)prop-2-en-1-one] | no significant body weight loss | 77.1 | 88.6 | – | –
2.32 | 2 | – | – | C=C(F)C(=O)N1CC(n2nc(-c3ccc(C(F)(F)F)cc3)c3ncn(C)c(=O)c32)C1 [Compound 80, 1-(1-(2-fluoroacryloyl)azetidin-3-yl)-6-methyl-3-(4-(trifluorometh-yl)phenyl)-1,6-dihydro-7H-pyrazolo[4,3-d]pyrimidin-7-one] | – | – | – | – | –
55.7 | 12 | – | – | C=CC(=O)N1CC(n2nc(-c3ccc(C(F)(F)F)cc3)c3cccnc32)C1 [Compound 30, 1-(3-(3-(4-(trifluoromethyl)phen-yl)-1H-pyrazolo[3,4-b]pyridin-1-yl)azetidin-1-yl)prop-2-en-1-one] | – | – | – | – | –
5.33 | 3 | – | – | C=C(F)C(=O)N1CC(n2nc(-c3ccc(C(F)(F)F)cc3)c3cccnc32)C1 [Compound 5, 2-fluoro-1-(3-(3-(4-(trifluoromethyl)phenyl)-1H-pyrazolo[3,4-b]pyridin-1-yl)azetidin-1-yl)prop-2-en-1-one] | no significant body weight loss | 76.9 | 101.3 | 40.3 | 105.9
19.5 | 30.4 | – | – | C=CC(=O)N1CCC(n2nc(-c3ccc(C(F)(F)F)cc3)c3ccccc32)C1 (stereo not drawn) [Compound 3, 1-(3-(3-(4-(trifluoromethyl)phenyl)-1H-indazol-1-yl)pyrrolidin-1-yl)prop-2-en-1-one] | – | – | – | – | –
20.7 | 14 | 7190 | 24300 | C=C(F)C(=O)N1CC(n2nc(-c3ccc(C(F)(F)F)nc3)c3cccnc32)C1 [Compound 124, 2-fluoro-1-(3-(3-(6-(trifluoro-methyl)pyridin-3-yl)-1H-pyrazolo[3,4-b]pyridin-1-yl)-azetidin-1-yl)prop-2-en-1-one] | no significant body weight loss | 67.3 | – | – | –
12.7 | 6 | – | – | C=C(F)C(=O)N1CC(n2nc(-c3ccc(C(F)(F)F)nc3)c3ncccc32)C1 [Compound 132, 2-fluoro-1-(3-(3-(6-(trifluoro-methyl)pyridin-3-yl)-1H-pyrazolo[4,3-b]pyridin-1-yl)-azetidin-1-yl)prop-2-en-1-one] | – | – | – | – | –
114 | 7 | 1190 | 4070 | C=C(C)C(=O)N1CC(n2nc(-c3ccc(C(F)(F)F)cc3)c3cccnc32)C1 [Compound 73, 2-methyl-1-(3-(3-(4-(trifluoro-methyl)phenyl)-1H-pyrazolo[3,4-b]pyridin-1-yl)azetidin-1-yl)prop-2-en-1-one] | – | – | – | – | –
